Measured values published in ChEMBL document CHEMBL1201862, “PubChem BioAssay data set” (2004).
Activity calls are given as the source filed them. Rule as the data show it, for most assays here: actives have a measured EC50 and inactives only a lower limit.

What was measured:
[1] = luciferase reporter signal suppression in cells – H4 neuroglioma cells, luminescence, dose response (AID 1990); type: functional, cell-based
[2] = alpha-synuclein stem-loop luciferase translation blockers – H4 neuroglioma cells, luminescence, confirmation (AID 1988); type: functional, cell-based
[3] = Luminescence Cell-Based Dose Response HTS to Identify Inhibitors of 5'UTR Stem-Loop Driven Prion Protein mRNA Translation in H4 Neuroglioblastoma Cells. [Related pubchem assays: 1827 (Project Summary), 1813 (Primary HTS)]; type: functional
Cytochrome P450 3A4 = Cytochrome P450 3A4 (Homo sapiens, UniProt P08684);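 also: CYP3A4 tested as one member of a cytochrome P450 panel screen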
Cytochrome P450 3A4, sequence (P08684 whole entry): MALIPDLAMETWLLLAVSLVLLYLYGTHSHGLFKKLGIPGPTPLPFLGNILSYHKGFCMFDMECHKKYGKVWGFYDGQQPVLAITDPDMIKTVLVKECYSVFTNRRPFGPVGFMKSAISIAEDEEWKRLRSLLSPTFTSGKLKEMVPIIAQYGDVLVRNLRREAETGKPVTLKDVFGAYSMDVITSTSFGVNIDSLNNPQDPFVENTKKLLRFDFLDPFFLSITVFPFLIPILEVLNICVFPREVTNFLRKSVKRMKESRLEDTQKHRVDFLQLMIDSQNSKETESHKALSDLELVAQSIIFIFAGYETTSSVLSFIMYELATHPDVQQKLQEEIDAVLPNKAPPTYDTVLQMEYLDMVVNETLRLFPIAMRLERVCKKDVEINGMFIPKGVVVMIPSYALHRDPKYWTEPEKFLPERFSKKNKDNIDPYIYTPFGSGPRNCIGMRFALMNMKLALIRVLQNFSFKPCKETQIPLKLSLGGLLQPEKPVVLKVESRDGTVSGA

INS1 = experiment: INS-1E survival protection against cytokine death – cell-based, luminescence, retest, dose response (AID 449756); type: functional; conditions: Rattus norvegicus;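 also: cell death triggered by IL-1 beta plus TNF-alpha plus IFN-gamma mixture; protective hits raise ATP signal compared with cytokine alone wells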
[4] = molecular target: T1, Heat shock factor protein 1 (Mus musculus, UniProt P38532); experiment: decrease of HSF1-responsive luciferase luminescence – cell-based, NIH3T3, dose retest, confirmation (AID 2382); type: functional;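 also: NIH3T3 fibroblasts with HSF1-driven luciferase reporter stressed by proteasome inhibitor MG132; luminescence from HSF1-driven luciferase expression after 8 hours of MG132 stress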
T1 sequence (P38532 whole entry): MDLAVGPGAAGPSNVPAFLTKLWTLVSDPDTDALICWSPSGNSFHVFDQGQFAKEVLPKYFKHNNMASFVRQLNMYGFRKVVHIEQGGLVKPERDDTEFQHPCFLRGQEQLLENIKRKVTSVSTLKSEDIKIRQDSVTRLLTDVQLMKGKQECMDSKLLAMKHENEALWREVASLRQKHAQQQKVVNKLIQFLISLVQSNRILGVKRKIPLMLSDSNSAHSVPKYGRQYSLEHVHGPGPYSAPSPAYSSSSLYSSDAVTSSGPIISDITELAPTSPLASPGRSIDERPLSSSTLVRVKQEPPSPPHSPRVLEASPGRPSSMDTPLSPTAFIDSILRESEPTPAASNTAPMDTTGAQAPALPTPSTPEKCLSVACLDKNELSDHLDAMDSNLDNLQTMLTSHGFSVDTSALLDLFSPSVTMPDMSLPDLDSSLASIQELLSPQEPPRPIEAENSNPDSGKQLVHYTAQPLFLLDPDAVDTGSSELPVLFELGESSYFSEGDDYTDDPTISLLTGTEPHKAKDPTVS

[5] = Trypanosoma cruzi growth suppression in host cells – NIH3T3 host cells, beta-gal luminescence, confirmation (AID 2044); type: functional, cell-based;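 also: intracellular parasites grown in NIH/3T3 mouse fibroblasts as host cells; luminescent beta-galactosidase reporter signal from transgenic T. cruzi replicating inside host cells; inhibitors lower the luminescence signal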
[6] = NIH3T3 cell viability loss – ATP luminescence, mouse fibroblasts, counter-screen, dose response (AID 2010); type: functional, cell-based;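 also: cells exposed to compound for about 90 hours before reading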
Cytochrome P450 2C9 = Cytochrome P450 2C9 (Homo sapiens, UniProt P11712)
Cytochrome P450 2C9, sequence (P11712 whole entry): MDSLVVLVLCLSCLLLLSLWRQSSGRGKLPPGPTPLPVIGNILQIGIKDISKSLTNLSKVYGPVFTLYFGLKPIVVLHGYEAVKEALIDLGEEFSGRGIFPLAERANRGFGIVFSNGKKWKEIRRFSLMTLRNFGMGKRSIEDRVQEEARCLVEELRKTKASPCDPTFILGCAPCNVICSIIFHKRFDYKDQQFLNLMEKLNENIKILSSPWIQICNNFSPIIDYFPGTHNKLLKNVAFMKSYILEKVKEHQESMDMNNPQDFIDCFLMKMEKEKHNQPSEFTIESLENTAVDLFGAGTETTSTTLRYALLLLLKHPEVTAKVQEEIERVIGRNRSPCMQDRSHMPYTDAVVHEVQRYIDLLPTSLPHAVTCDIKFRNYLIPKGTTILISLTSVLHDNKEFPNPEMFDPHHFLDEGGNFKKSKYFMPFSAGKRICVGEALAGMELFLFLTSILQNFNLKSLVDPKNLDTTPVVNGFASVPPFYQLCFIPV

[7] = Luminescence Cell-Based Dose Retest to Confirm Inhibitors of Cancer Stem Cells. [Related pubchem assays (depositor defined):AID2717, AID2721]; type: functional; conditions: Homo sapiens
[8] = system: Streptococcus sp. 'group A'; experiment: Streptococcus pyogenes SK(-)GAS viability under kanamycin – luminescence, BacTiterGlo, confirmation, counter-screen for streptokinase expression inhibitor project, dose response (AID 1900); type: functional, organism-based
Streptococcus = experiment: GAS UMAA2166 growth inhibition – luminescence, BacTiterGlo, counter-screen for streptokinase expression inhibitor project, dose response (AID 1915); type: functional, organism-based;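 also: potency for reduction of bacterial viability or growth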

## O=C(c1nn2c(C(F)(F)F)cc(-c3ccco3)nc2c1Br)N1CCCc2ccccc21
[1]
  EC50: 8.31 µM (active)
[2]
  EC50: 10.2 µM (active)
[3]
  EC50: 13.8 µM (active)

## CN(C)Cc1ccccc1-c1ccc2ncnc(N(C)Cc3ccco3)c2c1
Cytochrome P450 3A4
  AC50: 15.8 µM (inconclusive)

## N#Cc1c(N2CCOCC2)nc(-c2ccco2)c2c1CCCC2
[1]
  EC50: 21.5 µM (active)
[2]
  EC50: > 120 µM (not active)
[3]
  EC50: 18.5 µM (active)

## CCOc1ccc(-c2cc(CCCC(=O)N3CCN(c4ccc(OC)cc4)CC3)no2)cc1
[1]
  EC50: > 120 µM (not active)
[2]
  EC50: 28.1 µM (active)
[3]
  EC50: > 120 µM (not active)

## CCCCN(C)CCNC(=O)c1cc2c(-c3ccccc3F)nn(C)c2s1
INS1
  AC50: > 260 µM (inactive)
[4]
  EC50: > 195 µM (not active)

## O=C(CCNC(=O)c1ccccc1Cl)Nc1nc(-c2ccc3ccccc3c2)cs1
[5]
  EC50: 2.02 µM (active)
[6]
  EC50: > 60 µM (not active)

## CCOc1ccc(-n2nc3ccc(NC(=O)c4ccc5c(c4)OCCO5)cc3n2)cc1
[1]
  EC50: > 120 µM (not active)
[2]
  EC50: 12.7 µM (active)
[3]
  EC50: 72.6 µM (active)

## C=C(C)COc1ccc2c(c1)CCC1C2CC[C@]2(C)C(=O)/C(=N/O)CC12 (stereo partly drawn)
Cytochrome P450 2C9
  AC50: 3.16 µM (inconclusive)

## CC(C)c1nc(N2CCOCC2)c(C#N)c2c1COC(C)(C)C2
[1]
  EC50: 33.6 µM (active)
[2]
  EC50: > 120 µM (not active)
[3]
  EC50: > 120 µM (not active)

## Nc1nnc(SCCOc2cccc(Br)c2)s1
Cytochrome P450 2C9
  AC50: 15.8 µM (inconclusive)

## Cn1ccnc1C1CCCCN1C(=O)c1cc(COc2ccc(F)cc2Cl)on1 (stereo not drawn)
[4]
  EC50: > 195 µM (not active)

## O=C(Nc1cccnc1Cl)c1cc([N+](=O)[O-])ccc1Cl
[5]
  EC50: > 60 µM (not active)
[6]
  EC50: > 60 µM (not active)

## O=C(CSc1nc2ccccc2n1S(=O)(=O)c1ccccc1)N1CCCCC1
[4]
  EC50: > 195 µM (not active)

## CCOC(=O)Cc1csc(NC(=O)c2c(O)c3ccccc3n(CC(C)C)c2=O)n1
[1]
  EC50: > 120 µM (not active)
[2]
  EC50: 11.1 µM (active)
[3]
  EC50: > 120 µM (not active)

## Cc1cc(C)c2nc(C(F)(F)F)c(C#N)c(N)c2c1
[4]
  EC50: 3.15 µM (active)

## O=C(N1CCCCC1)N1CCN(S(=O)(=O)c2ccccc2)CC1
[4]
  EC50: 32.8 µM (active)

## COC(=O)N/N=C/c1ccc(/C=N/NC(=O)OC)cc1
[4]
  EC50: > 195 µM (not active)

## CCCCn1c(C2CCCCC2)nc2cc3nc(O)c(C(C)C)nc3cc21
[7]
  AC50: 1.23 µM (active)

## COc1ccc(N(CC(=O)NC2CCCCCCC2)S(=O)(=O)c2c(C)nn(C)c2C)cc1
[4]
  EC50: > 195 µM (not active)

## Cc1ccc(S(=O)(=O)N2CCC(C(=O)N[C@@H](Cc3ccccc3)C(=O)O)CC2)cc1
[4]
  EC50: > 195 µM (not active)

## COc1cccc(-c2cc(NCCc3c[nH]c4ccc(OC)cc34)ncn2)c1
Cytochrome P450 2C9
  AC50: 1.58 µM (inconclusive)

## Cc1ccc(Cl)cc1N=C(S)N(Cc1cccnc1)Cc1ccccc1Cl
[5]
  EC50: 0.554 µM (active)
[6]
  EC50: > 60 µM (not active)

## Cn1c(-c2ccsc2)c(-c2cccs2)c2cc(Br)ccc21
[7]
  AC50: 3.15 µM (active)

## Clc1ccccc1N1CCN(Cc2c[nH]c3ccccc23)CC1
[5]
  EC50: 1.43 µM (active)
[6]
  EC50: > 60 µM (not active)

## CN1CCN(NC(=O)c2ccc(S(=O)(=O)N3CCCCCC3)cc2)CC1
[5]
  EC50: 0.247 µM (active)
[6]
  EC50: > 60 µM (not active)

## Cc1cc(C)n(-c2ccc(NC(=O)C3CCCCN3C(=O)c3ccoc3C)cc2)n1 (stereo not drawn)
[4]
  EC50: > 195 µM (not active)

## CCCn1c2c(c(O)c(C(=O)NCc3ccccc3)c1=O)CCCC2
Cytochrome P450 2C9
  AC50: 20 µM (inconclusive)

## Cc1ccc(-n2nc(C)c3c(C)c(CCC(=O)NCC4CCCO4)c(=O)n(C)c32)cc1 (stereo not drawn)
[5]
  EC50: 5.19 µM (active)
[6]
  EC50: > 60 µM (not active)

## COCCCN=C(S)NN=C(S)Nc1cccc(Cl)c1
[8]
  EC50: > 150 µM (not active)
Streptococcus
  EC50: > 150 µM (not active)

## CCC(C)(C)n1nnnc1C(c1cc2ccc(OC)cc2nc1O)N1CCc2ccccc2C1 (stereo not drawn)
[5]
  EC50: 1.91 µM (active)
[6]
  EC50: 4.98 µM (active)

## O=C(CC12CC3CC(CC(C3)C1)C2)NC(=S)Nc1ccc(CN2CCOCC2)cc1
[5]
  EC50: 1.51 µM (active)
[6]
  EC50: 9.26 µM (active)

## Cc1cccc(Nc2c([N+](=O)[O-])cc(C(=O)N3CC(=O)Nc4ccccc43)cc2[N+](=O)[O-])c1
[5]
  EC50: 0.518 µM (active)
[6]
  EC50: > 60 µM (not active)

## COc1cccc2s/c(=N/C(=O)CS(=O)(=O)c3ccc(F)cc3)n(C)c12
[5]
  EC50: 1.2 µM (active)
[6]
  EC50: > 60 µM (not active)

## CCOCC(=O)Nc1cc(C(=O)Nc2cccc(C)c2C)ccc1Cl
Cytochrome P450 3A4
  AC50: 25.1 µM (inconclusive)

## Cc1ccc(C)c(NC(=O)c2ccccc2NS(=O)(=O)c2cc([N+](=O)[O-])ccc2C)c1
INS1
  AC50: 3.76 µM (active)
[7]
  AC50: 1.19 µM (active)

## O=C(C1=C[C@H](c2ccc(C(F)(F)F)cc2)C[C@H](OCCCCO)O1)N1CCN(Cc2ccc3c(c2)OCO3)CC1
[4]
  EC50: > 195 µM (not active)

## Cc1ccc(NCc2ccc(C)s2)cc1
[5]
  EC50: 2.13 µM (active)
[6]
  EC50: > 60 µM (not active)

## CS(=O)(=O)n1nc(-c2cccnc2)nc1NCc1ccccc1
[1]
  EC50: > 120 µM (not active)
[2]
  EC50: > 120 µM (not active)
[3]
  EC50: > 120 µM (not active)

## Cn1c(NCc2cccnc2)nc2c1c(=O)n(Cc1ccccc1F)c(=O)n2C
[1]
  EC50: 18.5 µM (active)
[2]
  EC50: > 120 µM (not active)
[3]
  EC50: > 120 µM (not active)

## CC(C)C(NC(=O)C12CC3CC(CC(C3)C1)C2)C(=O)N/N=C/C1=C(N2CCOCC2)C(=C\c2cccc([N+](=O)[O-])c2)/CC1 (stereo not drawn)
[5]
  EC50: 2.16 µM (active)
[6]
  EC50: > 60 µM (not active)

## Cc1noc(C)c1C(=O)N1CCC(C(=O)c2ccccc2)CC1
[4]
  EC50: > 195 µM (not active)

## CC(=O)c1cccc(/N=c2\scc(-c3ccc(S(=O)(=O)N4CCOCC4)cc3)n2CCO)c1
INS1
  AC50: 2.5 µM (active)

## O=C(c1ccccc1)c1cc(F)c(N2CCOCC2)cc1Cl
Cytochrome P450 3A4
  AC50: 17.8 µM (inconclusive)

## c1ccc(Cn2c[n+](Cc3ccccc3)cn2)cc1
[4]
  EC50: > 195 µM (not active)

## O=C1C2CCCN2C(c2ccc(F)cc2)N1c1nccs1 (stereo not drawn)
Cytochrome P450 3A4
  AC50: 22.4 µM (inconclusive)
Cytochrome P450 2C9
  AC50: 35.5 µM (inconclusive)

## CC/C(NNc1ccccc1)=C1/C(=O)NC(=O)N(c2ccccc2)C1=O
[7]
  AC50: 0.828 µM (active)

## COc1ccc(OC)c(NC(=O)CSc2nnc(-c3cccnc3)s2)c1
INS1
  AC50: 3.66 µM (active)

## CCn1c(C)c(C)c2cc(C(=O)N3CCN(c4cccc(C)c4C)CC3)ccc21
[7]
  AC50: 4.18 µM (active)

## COc1ccc([C@@H]2[C@@H]3C(=O)N(C(C)(C)C)C(=O)[C@@H]3[C@]3(C)C(=O)N(c4cccc(F)c4)C(=O)N23)cc1
[1]
  EC50: > 120 µM (not active)
[2]
  EC50: > 120 µM (not active)
[3]
  EC50: > 120 µM (not active)

## O=C(NCCS(=O)(=O)N1CCN(c2ccc(F)cc2)CC1)c1ccc(Br)o1
[1]
  EC50: > 120 µM (not active)
[2]
  EC50: > 120 µM (not active)
[3]
  EC50: > 120 µM (not active)

## COc1cc(CNCCN2CCOCC2)ccc1OCc1ccccc1Cl
Cytochrome P450 2C9
  AC50: 7.94 µM (inconclusive)

## C/C(=N/Cc1cccc(Cl)c1)c1nc(-c2ccco2)oc1O
[7]
  AC50: 1.08 µM (active)

## CC(=O)NC(=S)Nc1cccc(S(=O)(=O)NC2=NCCC2)c1
[4]
  EC50: > 195 µM (not active)

## CC/C(NNc1ccccc1)=C1/C(=O)NC(=O)N(c2ccc(OC)cc2)C1=O
[7]
  AC50: 0.769 µM (active)

## COc1ccc2nc(NC(=O)c3cccc(-c4cc5ccccc5oc4=O)c3)sc2c1
[7]
  AC50: 6.73 µM (active)

## CN(Cc1ccccc1)CC(O)COc1ccc(CNCCc2ccncc2)cc1 (stereo not drawn)
[5]
  EC50: 0.9 µM (active)
[6]
  EC50: > 60 µM (not active)
